System: UT7/EPO Cell line
Test: Cell proliferation assay in UT7/EPO cell line (ViaLight Plus)
Format: cell-based, human
Settings: compound at 10 uM; efficacy relative to EPO (100%); UT7/EPO cells expressing endogenous EPO receptor, starved of EPO overnight; 72 hours at 37° C.
Experimental: The primary testing for the exemplified compounds was performed in UT7/EPO Cell line. UT7/EPO is human leukemia cell line, obtained from Dr. Norio Komatsu (Blood, Vol 82 (2), pp 456-464, 1993). These cells express endogenous EPO receptor and are dependant upon EPO for growth and proliferation. Briefly, the cells were starved of EPO overnight and plated in 96 or 384 well plates. The compounds were added to the cells at 10 uM concentration. The plates were then incubated at 37° C. for 72 hours. The proliferative effect of the compounds was measured by a commercially available kit from Lonza (ViaLight Plus).

SMILES | Activity (%)
COc1ccc(O)c(/C=N/NC(=O)c2cc3cc(OC)ccc3[nH]2)c1 [Compound 172, 5-Methoxyindole-2-carboxyl(2-hydroxy-5-methoxybenzylidene)hydrazide] | 9.8
COc1ccc(O)c(/C=N/NC(=O)COc2ccc3[nH]ccc3c2)c1 [Compound 173, 5-Indolyloxoacet(2-hydroxy-5-methoxybenzylidene)hydrazide] | 12
COc1ccc(O)c(/C=N/NC(=O)c2cc3cc(O)ccc3o2)c1 [Compound 174, 5-Hydroxybenzofuran-2-carboxyl(2-hydroxy-5-methoxybenzylidene)hydrazide] | 19
COc1ccc(O)c(/C=N/NC(=O)c2cc3cc(O)ccc3[nH]2)c1 [Compound 175, 5-Hydroxyindole-2-carboxyl(2-hydroxy-5-methoxybenzylidene)hydrazide] | 4.3
COCc1cccc(/C=N/NC(=O)c2cc3cc(O)ccc3o2)c1 [Compound 176, 5-Hydroxybenzofuran-2-carboxyl(3-methoxymethylbenzylidene)hydrazide] | 19
CN(C)c1ccc(C(=O)N/N=C/c2cccc(N(C)C)c2)cc1 [Compound 177, 4-Dimethylaminobenz(3-dimethylaminobenzylidene)hydrazide] | 9.1
CCNC(=O)/C=C/c1cccc(/C=N/NC(=O)c2ccc(N(C)C)cc2)c1 [Compound 179, 4-Dimethylaminobenz(2E-ethylaminocarboxyethenylbenzylidene)hydrazide] | 4.3
CN(C)c1ccc(C(=O)N/N=C/c2ccc3c(Cl)c[nH]c3c2)cc1 [Compound 180, 4-Dimethylaminobenz(3-chloro-6-indolidene)hydrazide] | 3.2
Cc1ccccc1/C=C/c1cccc(/C=N/NC(=O)c2ccc(N(C)C)cc2)c1 [Compound 181, 4-Dimethylaminobenz(2E-(2-methylphenyl)ethenylbenzylidene)hydrazide] | 4.2
CN(C)c1ccc(C(=O)N/N=C/c2cccc(/C=C/c3cccc(Cl)c3)c2)cc1 [Compound 182, 4-Dimethylaminobenz(2E-(3-chlorophenyl)ethenylbenzylidene)hydrazide] | 11
CN(C)c1ccc(C(=O)N/N=C/c2cccc(COCc3ccccc3)c2)cc1 [Compound 184, 4-Dimethylaminobenz(3-benzyloxymethylbenzylidene)hydrazide] | 21
CN(C)c1ccc(C(=O)N/N=C/c2cccc(/C=C/c3ccccc3Cl)c2)cc1 [Compound 185, 4-Dimethylaminobenz(2E-(2-chlorophenyl)ethenylbenzylidene)hydrazide] | 16
CN(C)c1ccc(C(=O)N/N=C/c2cccc(/C=C/c3ccc(Cl)cc3)c2)cc1 [Compound 186, 4-Dimethylaminobenz(2E-(4-chlorophenyl)ethenylbenzylidene)hydrazide] | 9.6
COCc1cccc(/C=N/NC(=O)c2ccc(N(C)C)cc2)c1 [Compound 187, 4-Dimethylaminobenz(3-methoxymethylbenzylidene)hydrazide] | 17
Cc1ccccc1COCc1cccc(/C=N/NC(=O)c2ccc(N(C)C)cc2)c1 [Compound 188, 4-Dimethylaminobenz(3-(2-methylbenzyloxy)methylbenzylidene)hydrazide] | 5.5
Cc1ccc(COCc2cccc(/C=N/NC(=O)c3ccc(N(C)C)cc3)c2)cc1 [Compound 189, 4-Dimethylaminobenz(3-(4-methylbenzyloxy)methylbenzylidene)hydrazide] | 9.1
CN(C)c1ccc(C(=O)N/N=C/c2cccc(/C=N/OCc3ccccc3)c2)cc1 [Compound 190, 4-Dimethylaminobenz(3-benzyloxyiminomethylbenzylidene)hydrazide] | 20
O=C(N/N=C/c1cccc(/C=C/c2ccccc2Cl)c1)c1ccc(-n2ccnc2)cc1 [Compound 191, 4-(1-Imidazolyl)benz(2E-(2-chlorophenyl)ethenylbenzylidene)hydrazide] | 6.2
C=CCO/N=C/c1cccc(/C=N/NC(=O)c2ccc(N(C)C)cc2)c1 [Compound 192, 4-Dimethylaminobenz(3-allyloxyiminomethylbenzylidene)hydrazide] | 5.3
COc1cccc(/C=N/NC(=O)c2ccc(-n3ccnc3)cc2)c1 [Compound 193, 4-(1-Imidazolyl)benz(3-methoxybenzylidene)hydrazide] | 7.3
O=C(N/N=C/c1cccc(/C=N/OCc2ccccc2)c1)c1ccc(-n2ccnc2)cc1 [Compound 194, 4-(1-Imidazolyl)benz(3-benzyloxyiminomethylbenzylidene)hydrazide] | 5.2
CN(C)c1ccc(C(=O)N/N=C/c2cccc(OCCO)c2)cc1 [Compound 195, 4-Dimethylaminobenz(3-(2-hydroxyethoxy)benzylidene)hydrazide] | 7.3
O=C(/C=C/c1ccc(-c2ccccc2)cc1)N/N=C/c1ccc(OCCO)cc1 [Compound 198, 2E-(4-Phenylphenyl)acryl(4-(2-hydroxyethoxy)benzylidene)hydrazide] | 4.6
COc1cccc(/C=N/NC(=O)c2ccc(NCCO)cc2)c1 [Compound 199, 4-(2-Hydroxyethylamino)benz(3-methoxybenzylidene)hydrazide] | 3.0

Reference: patent US8680150B2, “Small molecule hematopoietic growth factor mimetic compounds that activate hematopoietic growth factor receptors” (Ligand Pharmaceuticals, Inc., priority 2009, dated 2014)
